Test system: nodal section explants from 7-day-old seedlings of corn line 106
Assay: Effect of seed germination medium on callus induction from nodal section explants (36-media screen)
Type: cell-based
Experimental: This example described experiments to determine the best combination of auxins and cytokinins in the germination tissue culture media. To improve the efficiency of callus induction from 106 seedlings, 36 different germination media were evaluated. Those media were MS-based with different combinations of picloram (0, 0.1, 1, 2.2, 5 or 10 mg/L) and BAP (0, 0.1, 1, 3, 5 or 10 mg/L) concentrations.

| SMILES | callus induction (% embryogenic calli per node) (germination medium picloram 0.00 mg/L, BAP 0.10 mg/L) [%] | callus induction (% embryogenic calli per node) (germination medium picloram 0.00 mg/L, BAP 1.00 mg/L) [%] | callus induction (% embryogenic calli per node) (germination medium picloram 0.00 mg/L, BAP 3.00 mg/L) [%] | callus induction (% embryogenic calli per node) (germination medium picloram 0.00 mg/L, BAP 5.00 mg/L) [%] | callus induction (% embryogenic calli per node) (germination medium picloram 0.00 mg/L, BAP 10.00 mg/L) [%] | callus induction (% embryogenic calli per node) (germination medium picloram 0.10 mg/L, BAP 0.00 mg/L) [%] | callus induction (% embryogenic calli per node) (germination medium picloram 1.00 mg/L, BAP 0.00 mg/L) [%] | callus induction (% embryogenic calli per node) (germination medium picloram 2.20 mg/L, BAP 0.00 mg/L) [%] | callus induction (% embryogenic calli per node) (germination medium picloram 5.00 mg/L, BAP 0.00 mg/L) [%] | callus induction (% embryogenic calli per node) (germination medium picloram 10.00 mg/L, BAP 0.00 mg/L) [%] |
| --- | --- | --- | --- | --- | --- | --- | --- | --- | --- | --- |
| c1ccc(CNc2ncnc3nc[nH]c23)cc1 [BAP, 6-benzylaminopurine] | 4.76 | 0.00 | 14.29 | 0.00 | 0.00 |  |  |  |  |  |
| Nc1c(Cl)c(Cl)nc(C(=O)O)c1Cl [Picloram, 4-amino-3,5,6-trichloropicolinic acid] |  |  |  |  |  | 0.00 | 9.52 | 9.52 | 19.05 | 4.76 |
